Test results published in ChEMBL document CHEMBL5390209, “Spinosyn A and Its Derivative Inhibit Colorectal Cancer Cell Growth via the EGFR Pathway” (J Nat Prod, 2023).
Active and inactive are the calls of the source. No cut-off for these calls is given here.

Experiments:
HT-29 [1] = assay: Antiproliferative activity against human HT-29 cells assessed as cell growth inhibition incubated for 48 hrs by MTT assay; assay type: functional, cell-based; details: for IC50: HT-29, 48 h
SW480 [2] = assay: Antiproliferative activity against human SW480 cells assessed as cell growth inhibition incubated for 48 hrs by MTT assay; assay type: functional, cell-based; details: dose >= 10.0 µM
SW-620 = assay: Antiproliferative activity against human SW620 cells assessed as cell growth inhibition incubated for 48 hrs by MTT assay; assay type: functional, cell-based; details: dose >= 10.0 µM
HCT-116 [3] = assay: Antiproliferative activity against human HCT-116 cells assessed as cell growth inhibition incubated for 48 hrs by MTT assay; assay type: functional, cell-based; details: dose >= 10.0 µM
LoVo = assay: Antiproliferative activity against human LoVo cells assessed as cell growth inhibition incubated for 48 hrs by MTT assay; assay type: functional, cell-based; details: dose >= 10.0 µM
RKO = assay: Antiproliferative activity against human RKO cells assessed as cell growth inhibition incubated for 48 hrs by MTT assay; assay type: functional, cell-based
DLD-1 = assay: Antiproliferative activity against human DLD-1 cells assessed as cell growth inhibition incubated for 48 hrs by MTT assay; assay type: functional, cell-based; details: dose >= 10.0 µM
HT-29 [4] = assay: Inhibition of colony formation in human HT-29 cells at 0.75 uM incubated for 14 days by crystal violet staining based colony formation assay; assay type: functional, cell-based; details: time 14.0 day
HCT-116 [5] = assay: Inhibition of colony formation in human HCT-116 cells at 0.75 uM incubated for 14 days by crystal violet staining based colony formation assay; assay type: functional, cell-based; details: time 14.0 day
HT-29 [6] = assay: Antitumor activity against human HT-29 cells xenografted Balb/c mouse assessed as reduction in tumor growth at 2.5 mg/kg/day, ip administrated for every other day and measured after 28 days; assay type: functional, organism-based; details: time 28.0 day
[7] = Toxicity in human HT-29 cells xenografted Balb/c mouse assessed as change in liver pathology at 2.5 mg/kg/day, ip administrated for every other day and measured after 28 days; assay type: organism-based; details: in vivo, 672 h, time 28 day
[8] = Toxicity in human HT-29 cells xenografted Balb/c mouse assessed as change in lung pathology at 2.5 mg/kg/day, ip administrated for every other day and measured after 28 days; assay type: organism-based; details: in vivo, 672 h, time 28 day
HT-29 [9] = assay: Antiproliferative activity against EGFR knockout human HT-29 cells assessed as reduction in cell viability incubated for 48 hrs by MTT assay; assay type: functional, cell-based
SW480 [10] = assay: Antiproliferative activity against EGFR knockout human SW480 cells assessed as reduction in cell viability incubated for 48 hrs by MTT assay; assay type: functional, cell-based
HT-29 [11] = assay: Antiproliferative activity against HER2 knockout human HT-29 cells assessed as reduction in cell viability incubated for 48 hrs by MTT assay; assay type: functional, cell-based
HT-29 [12] = assay: Antiproliferative activity against double EGFR/HER2 knockout human HT-29 cells assessed as reduction in cell viability incubated for 48 hrs by MTT assay; assay type: functional, cell-based
SW480 [13] = assay: Antiproliferative activity against double EGFR/HER2 knockout human SW480 cells assessed as reduction in cell viability incubated for 48 hrs by MTT assay; assay type: functional, cell-based
SW480 [14] = assay: Inhibition of colony formation in EGFR knockdown human SW480 cells at 0.75 uM incubated for 14 days by crystal violet staining based colony formation assay; assay type: functional, cell-based; details: time 14.0 day
SW480 [15] = assay: Inhibition of colony formation in double EGFR/HER2 knockdown human SW480 cells at 0.75 uM incubated for 14 days by crystal violet staining based colony formation assay; assay type: functional, cell-based; details: time 14.0 day
[16] = target: Epidermal growth factor receptor (Homo sapiens) (UniProt P00533); assay: Inhibition of EGFR in human HT-29 cells incubated for 24 hrs by Western blotting analysis; assay type: cell-based; details: dose 3.75-15 µM
Chain of Epidermal growth factor receptor (Homo sapiens) (P00533 whole entry): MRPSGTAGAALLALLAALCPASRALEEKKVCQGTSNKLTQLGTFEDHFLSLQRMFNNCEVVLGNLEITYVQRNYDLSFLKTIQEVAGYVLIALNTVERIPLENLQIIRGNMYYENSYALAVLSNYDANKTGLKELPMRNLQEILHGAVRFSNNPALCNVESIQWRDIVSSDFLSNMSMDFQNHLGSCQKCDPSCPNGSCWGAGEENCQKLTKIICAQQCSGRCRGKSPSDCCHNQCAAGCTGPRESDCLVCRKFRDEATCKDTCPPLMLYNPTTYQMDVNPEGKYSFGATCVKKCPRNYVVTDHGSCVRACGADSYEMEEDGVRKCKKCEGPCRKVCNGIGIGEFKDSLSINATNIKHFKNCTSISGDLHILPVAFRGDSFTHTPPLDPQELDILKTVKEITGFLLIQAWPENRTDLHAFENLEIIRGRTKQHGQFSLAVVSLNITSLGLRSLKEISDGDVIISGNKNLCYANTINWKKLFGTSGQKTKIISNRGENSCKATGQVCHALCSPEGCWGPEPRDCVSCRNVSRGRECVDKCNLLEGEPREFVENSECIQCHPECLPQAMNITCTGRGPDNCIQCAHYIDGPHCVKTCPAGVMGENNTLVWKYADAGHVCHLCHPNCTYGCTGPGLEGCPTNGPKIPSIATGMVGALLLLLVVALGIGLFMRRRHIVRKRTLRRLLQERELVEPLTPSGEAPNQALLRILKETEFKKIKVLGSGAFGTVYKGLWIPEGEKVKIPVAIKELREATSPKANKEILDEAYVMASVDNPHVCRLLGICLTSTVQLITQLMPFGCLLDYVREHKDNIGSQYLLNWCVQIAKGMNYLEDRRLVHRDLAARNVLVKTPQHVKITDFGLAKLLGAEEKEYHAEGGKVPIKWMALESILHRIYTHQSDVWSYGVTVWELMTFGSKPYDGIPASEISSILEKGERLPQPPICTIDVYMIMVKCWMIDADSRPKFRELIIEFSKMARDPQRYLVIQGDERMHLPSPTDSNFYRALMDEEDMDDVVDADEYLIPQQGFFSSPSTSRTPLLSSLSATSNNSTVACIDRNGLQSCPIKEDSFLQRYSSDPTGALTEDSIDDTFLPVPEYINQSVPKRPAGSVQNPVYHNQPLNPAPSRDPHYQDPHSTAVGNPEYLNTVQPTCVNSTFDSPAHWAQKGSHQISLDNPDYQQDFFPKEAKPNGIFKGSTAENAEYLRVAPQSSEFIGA

[17] = target: Receptor tyrosine-protein kinase erbB-2 (Homo sapiens) (UniProt P04626); assay: Inhibition of HER2 in human HT-29 cells incubated for 24 hrs by Western blotting analysis; assay type: cell-based
Chain of Receptor tyrosine-protein kinase erbB-2 (Homo sapiens) (P04626 whole entry): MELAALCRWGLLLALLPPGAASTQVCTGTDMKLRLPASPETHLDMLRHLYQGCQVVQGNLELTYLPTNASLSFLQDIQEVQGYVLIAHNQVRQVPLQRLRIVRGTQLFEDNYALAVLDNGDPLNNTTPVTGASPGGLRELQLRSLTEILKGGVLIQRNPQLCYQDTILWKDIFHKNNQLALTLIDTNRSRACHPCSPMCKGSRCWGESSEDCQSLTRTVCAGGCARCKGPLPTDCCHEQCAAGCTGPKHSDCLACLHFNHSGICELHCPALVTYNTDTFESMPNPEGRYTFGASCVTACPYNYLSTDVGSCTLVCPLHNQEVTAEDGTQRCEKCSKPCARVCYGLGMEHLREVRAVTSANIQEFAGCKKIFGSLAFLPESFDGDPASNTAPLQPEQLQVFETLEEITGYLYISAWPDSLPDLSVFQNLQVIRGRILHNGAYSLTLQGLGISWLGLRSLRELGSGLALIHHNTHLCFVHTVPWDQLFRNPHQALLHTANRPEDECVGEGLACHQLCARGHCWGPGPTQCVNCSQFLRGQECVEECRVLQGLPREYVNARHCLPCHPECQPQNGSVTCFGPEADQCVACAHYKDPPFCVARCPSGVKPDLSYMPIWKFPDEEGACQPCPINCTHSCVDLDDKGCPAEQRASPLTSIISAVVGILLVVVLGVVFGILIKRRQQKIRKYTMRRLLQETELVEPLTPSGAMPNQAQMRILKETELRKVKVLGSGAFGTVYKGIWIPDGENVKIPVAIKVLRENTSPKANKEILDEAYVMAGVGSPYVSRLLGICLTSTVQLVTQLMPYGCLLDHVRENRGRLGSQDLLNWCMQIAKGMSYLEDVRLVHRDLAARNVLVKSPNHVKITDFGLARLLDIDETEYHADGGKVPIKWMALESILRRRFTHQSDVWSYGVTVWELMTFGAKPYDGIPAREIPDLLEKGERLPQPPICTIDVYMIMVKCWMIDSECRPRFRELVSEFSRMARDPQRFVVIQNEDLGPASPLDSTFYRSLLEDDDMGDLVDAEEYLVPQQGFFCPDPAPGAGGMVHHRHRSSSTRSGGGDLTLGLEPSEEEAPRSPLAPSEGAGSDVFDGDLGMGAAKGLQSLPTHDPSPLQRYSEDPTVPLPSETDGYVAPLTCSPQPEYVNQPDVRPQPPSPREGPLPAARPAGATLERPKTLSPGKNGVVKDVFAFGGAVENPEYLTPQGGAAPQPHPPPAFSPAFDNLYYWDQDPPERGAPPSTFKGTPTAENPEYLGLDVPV

[18] = target: Epidermal growth factor receptor (Homo sapiens) (UniProt P00533); assay: Inhibition of EGFR phosphorylation in human HT-29 cells incubated for 24 hrs by Western blotting analysis; assay type: cell-based
[19] = target: Receptor tyrosine-protein kinase erbB-2 (Homo sapiens) (UniProt P04626); assay: Inhibition of HER2 phosphorylation in human HT-29 cells incubated for 24 hrs by Western blotting analysis; assay type: cell-based
[20] = target: Epidermal growth factor receptor (Homo sapiens) (UniProt P00533); assay: Inhibition of EGFR in human SW480 cells incubated for 24 hrs by Western blotting analysis; assay type: cell-based
[21] = target: Receptor tyrosine-protein kinase erbB-2 (Homo sapiens) (UniProt P04626); assay: Inhibition of HER2 in human SW480 cells incubated for 24 hrs by Western blotting analysis; assay type: cell-based
[22] = target: Epidermal growth factor receptor (Homo sapiens) (UniProt P00533); assay: Inhibition of EGFR phosphorylation in human SW480 cells incubated for 24 hrs by Western blotting analysis; assay type: cell-based
[23] = target: Receptor tyrosine-protein kinase erbB-2 (Homo sapiens) (UniProt P04626); assay: Inhibition of HER2 phosphorylation in human SW480 cells incubated for 24 hrs by Western blotting analysis; assay type: cell-based
HT-29 [24] = assay: Inhibition of EGFR in human HT-29 cells xenografted in BALB/c nude mouse assessed as reduction in EGFR protein expression level at 2.5 mg/kg/day, ip administrated for every other day and measured after 28 days by immunohistochemistry staining based analysis; assay type: functional, organism-based; details: time 28.0 day
[25] = target: Epidermal growth factor receptor (Homo sapiens) (UniProt P00533); assay: Inhibition of EGFR in human HT-29 cells assessed as reduction in ratio of p-EGFR/EGFR level at 2 uM measured after 3 to 15 hrs by Western blot analysis; assay type: cell-based; details: time 3-15 hrs
[26] = target: Epidermal growth factor receptor (Homo sapiens) (UniProt P00533); assay: Inhibition of EGFR in human HT-29 cells assessed as reduction in Erk1/2 phosphorylation level at 0.5 to 2 uM incubated for 24 hrs by Western blotting analysis; assay type: cell-based; details: dose 0.5-2 µM
[27] = target: Epidermal growth factor receptor (Homo sapiens) (UniProt P00533); assay: Inhibition of EGFR in human HT-29 cells assessed as reduction in STAT3 phosphorylation level at 0.5 to 2 uM incubated for 24 hrs by Western blot analysis; assay type: cell-based; details: dose 0.5-2 µM
HT-29 [28] = assay: Inhibition of colony formation in human HT-29 cells at 6 uM incubated for 14 days by crystal violet staining based colony formation assay; assay type: functional, cell-based; details: time 14.0 day
[29] = Toxicity in human HT-29 cells xenografted Balb/c mouse assessed as change in body weight at 5 mg/kg/day, ip administrated for every other day and measured after 6 days; assay type: organism-based; details: in vivo, 144 h, time 6 day
HT-29 [30] = assay: Antitumor activity against human HT-29 cells xenografted Balb/c mouse assessed as reduction in tumor growth at 5 mg/kg/day, ip administrated for every other day and measured after 28 days; assay type: functional, organism-based; details: time 28.0 day
SW480 [31] = assay: Inhibition of colony formation in EGFR knockdown human SW480 cells at 6 uM incubated for 14 days by crystal violet staining based colony formation assay; assay type: functional, cell-based; details: time 14.0 day
SW480 [32] = assay: Inhibition of colony formation in double EGFR/HER2 knockdown human SW480 cells at 6 uM incubated for 14 days by crystal violet staining based colony formation assay; assay type: functional, cell-based; details: time 14.0 day
[33] = target: Epidermal growth factor receptor (Homo sapiens) (UniProt P00533); assay: Inhibition of EGFR in human HT-29 cells assessed as reduction in Erk1/2 phosphorylation level at 3.75 to 15 uM incubated for 24 hrs by Western blotting analysis; assay type: cell-based; details: dose 3.75-15 µM
HT-29 [34] = assay: Inhibition of EGFR in human HT-29 cells xenografted in BALB/c nude mouse assessed as reduction in EGFR protein expression level in tumor at 5 mg/kg/day, ip administrated for every other day and measured after 28 days by immunohistochemistry staining based analysis; assay type: functional, organism-based; details: time 28.0 day
[35] = target: Epidermal growth factor receptor (Homo sapiens) (UniProt P00533); assay: Inhibition of EGFR in human HT-29 cells assessed as reduction in MEK1/2 phosphorylation level at 15 uM by Western blot analysis; assay type: cell-based; details: time 3-15 hrs, TDE = time-dependent effect
[36] = target: Epidermal growth factor receptor (Homo sapiens) (UniProt P00533); assay: Inhibition of EGFR in human HT-29 cells assessed as reduction in ratio of p-EGFR/EGFR level at 15 uM measured after 3 to 15 hrs by Western blotting analysis; assay type: cell-based; details: time 3-15 hrs

SMILES	Activity (HT-29 [1])	IC50 (HT-29 [1])	Activity (SW480 [2])	Activity (SW-620)	Activity (HCT-116 [3])	Activity (LoVo)	IC50 (RKO)	Activity (DLD-1)	Activity (HT-29 [9])	Activity (SW480 [10])	Activity (HT-29 [11])	Activity (HT-29 [12])	Activity (SW480 [13])	inhibition [16]	inhibition [17]	inhibition [18]	inhibition [19]	inhibition [20]	inhibition [21]	inhibition [22]	also measured
CC[C@H]1CCC[C@H](O[C@H]2CC[C@H](N(C)CC(O)CN3CCNCC3)[C@@H](C)O2)[C@@H](C)C(=O)C2=C[C@@H]3[C@@H](C=C[C@@H]4C[C@@H](O[C@@H]5O[C@@H](C)[C@H](OC)[C@@H](OC)[C@H]5OC)C[C@@H]34)[C@@H]2CC(=O)O1 (some centres undefined)	Dose-Dependent Effect	0.75 µM	Dose-Dependent Effect	Dose-Dependent Effect	Dose-Dependent Effect	Dose-Dependent Effect	3.3 µM	Dose-Dependent Effect	inactive	inactive	inactive	inactive	inactive	Dose-Dependent Effect	Dose-Dependent Effect	Dose-Dependent Effect	Dose-Dependent Effect	Dose-Dependent Effect	Dose-Dependent Effect	Dose-Dependent Effect	inhibition (RKO; dose >= 10.0 µM): Dose-Dependent Effect; inhibition (HT-29 [4]): Active; inhibition (HCT-116 [5]): Active; Activity (HT-29 [6]): Active; Activity [7]: Non-Toxic; Activity [8]: Non-Toxic; Activity (SW480 [14]): inactive; Activity (SW480 [15]): inactive; inhibition [23]: Dose-Dependent Effect; inhibition (HT-29 [24]): Active; inhibition [25]: Active; inhibition [26]: Active; inhibition [27]: Active
CC[C@H]1CCC[C@H](O[C@H]2CC[C@H](N(C)C)[C@@H](C)O2)[C@@H](C)C(=O)C2=C[C@@H]3[C@@H](C=C[C@@H]4C[C@@H](O[C@@H]5O[C@@H](C)[C@H](OC)[C@@H](OC)[C@H]5OC)C[C@@H]34)[C@@H]2CC(=O)O1 [SPINOSYN A]	Dose-Dependent Effect	7.3 µM	Dose-Dependent Effect	Dose-Dependent Effect	Dose-Dependent Effect	Dose-Dependent Effect	17 µM	Dose-Dependent Effect	inactive	inactive	inactive	inactive	inactive	Dose-Dependent Effect	Dose-Dependent Effect	Dose-Dependent Effect	Dose-Dependent Effect	Dose-Dependent Effect	Dose-Dependent Effect	Dose-Dependent Effect	Activity (RKO; dose >= 10.0 µM): Dose-Dependent Effect; inhibition (HT-29 [28]): Active; Activity [29]: Non-Toxic; Activity (HT-29 [30]): Active; Activity (SW480 [31]): Active; Activity (SW480 [32]): inactive; inhibition [23]: Dose-Dependent Effect; inhibition [33]: Active; inhibition (HT-29 [34]): Active; inhibition [35]: Tde; inhibition [36]: Active
